Experimental data from the NIST ThermoML archive (doi:10.1016/j.jct.2018.07.011).

Assay: relative permittivity at various frequencies (dimensionless)
Details: Reentrant cavity resonator

C=C(F)C(F)(F)F [2,3,3,3-tetrafluoro-1-propene]
Details | relative permittivity
248.51 K, 10580 kPa, Liquid, Frequency=120 MHz | 11.2191
248.71 K, 8271 kPa, Liquid, Frequency=120 MHz | 11.1539
248.95 K, 6475 kPa, Liquid, Frequency=120 MHz | 11.0761
249.16 K, 4746 kPa, Liquid, Frequency=120 MHz | 11.0131
249.37 K, 3089 kPa, Liquid, Frequency=120 MHz | 10.9467
249.67 K, 10580 kPa, Liquid, Frequency=120 MHz | 11.1976
249.71 K, 8272 kPa, Liquid, Frequency=120 MHz | 11.1217
249.75 K, 6476 kPa, Liquid, Frequency=120 MHz | 11.0617
249.76 K, 4750 kPa, Liquid, Frequency=120 MHz | 10.9998
249.77 K, 3089 kPa, Liquid, Frequency=120 MHz | 10.9379
273.14 K, 10470 kPa, Liquid, Frequency=120 MHz | 9.47583
273.41 K, 10970 kPa, Liquid, Frequency=120 MHz | 9.48739
273.5 K, 7893 kPa, Liquid, Frequency=120 MHz | 9.37498
273.59 K, 8235 kPa, Liquid, Frequency=120 MHz | 9.38477
273.69 K, 4628 kPa, Liquid, Frequency=120 MHz | 9.24224
273.79 K, 5794 kPa, Liquid, Frequency=120 MHz | 9.28399
273.95 K, 1601 kPa, Liquid, Frequency=120 MHz | 9.10293
274.32 K, 3368 kPa, Liquid, Frequency=120 MHz | 9.17004
275.05 K, 1116 kPa, Liquid, Frequency=120 MHz | 9.04939
297.54 K, 7675 kPa, Liquid, Frequency=120 MHz | 7.93035
297.56 K, 247.8 kPa, Gas, Frequency=340 MHz | 1.03846
297.57 K, 4942 kPa, Liquid, Frequency=120 MHz | 7.79441
297.57 K, 10760 kPa, Liquid, Frequency=120 MHz | 8.06626
297.58 K, 2537 kPa, Liquid, Frequency=120 MHz | 7.65994
297.61 K, 259.6 kPa, Gas, Frequency=340 MHz | 1.04022
297.63 K, 225.5 kPa, Gas, Frequency=340 MHz | 1.03469
297.67 K, 100.9 kPa, Gas, Frequency=340 MHz | 1.01502
321.5 K, 203 kPa, Gas, Frequency=340 MHz | 1.02682
321.53 K, 644.4 kPa, Gas, Frequency=340 MHz | 1.09027
321.55 K, 817.8 kPa, Gas, Frequency=340 MHz | 1.11132
321.63 K, 4262 kPa, Liquid, Frequency=120 MHz | 6.51012
321.65 K, 7089 kPa, Liquid, Frequency=120 MHz | 6.70204
321.65 K, 10590 kPa, Liquid, Frequency=120 MHz | 6.89633
345.73 K, 218.5 kPa, Gas, Frequency=340 MHz | 1.02515
345.74 K, 874.9 kPa, Gas, Frequency=340 MHz | 1.10115
345.75 K, 693 kPa, Gas, Frequency=340 MHz | 1.08291
345.89 K, 4404 kPa, Liquid, Frequency=120 MHz | 5.30782
345.93 K, 6822 kPa, Liquid, Frequency=120 MHz | 5.57121
346.01 K, 10290 kPa, Liquid, Frequency=120 MHz | 5.83949
365.22 K, 908.6 kPa, Gas, Frequency=340 MHz | 1.09359
365.25 K, 713.8 kPa, Gas, Frequency=340 MHz | 1.07604
365.3 K, 230.9 kPa, Gas, Frequency=340 MHz | 1.0241

[Ar] [argon]
Gas, Frequency=340 MHz
Details | relative permittivity
272.94 K, 8533 kPa | 1.05077
273.04 K, 5986 kPa | 1.03462
273.17 K, 3359 kPa | 1.01869
297.44 K, 9503 kPa | 1.05146
297.45 K, 3675 kPa | 1.01893
297.45 K, 6614 kPa | 1.03509
321.92 K, 4005 kPa | 1.01899
321.93 K, 7248 kPa | 1.03523

O=C=O [carbon dioxide]
Details | relative permittivity
234.7 K, 5002 kPa, Liquid, Frequency=270 MHz | 1.73109
234.76 K, 4012 kPa, Liquid, Frequency=270 MHz | 1.729
234.77 K, 2015 kPa, Liquid, Frequency=270 MHz | 1.72473
234.78 K, 3015 kPa, Liquid, Frequency=270 MHz | 1.72689
235.13 K, 6031 kPa, Liquid, Frequency=270 MHz | 1.73287
248.98 K, 4006 kPa, Liquid, Frequency=270 MHz | 1.68089
249.12 K, 3018 kPa, Liquid, Frequency=270 MHz | 1.67791
249.15 K, 2012 kPa, Liquid, Frequency=270 MHz | 1.67486
251.38 K, 6015 kPa, Liquid, Frequency=270 MHz | 1.68401
251.72 K, 5017 kPa, Liquid, Frequency=270 MHz | 1.6809
252.7 K, 6996 kPa, Liquid, Frequency=270 MHz | 1.685
273.6 K, 7004 kPa, Liquid, Frequency=270 MHz | 1.59893
273.75 K, 6019 kPa, Liquid, Frequency=270 MHz | 1.5936
274.12 K, 5019 kPa, Liquid, Frequency=270 MHz | 1.58749
274.66 K, 4024 kPa, Liquid, Frequency=270 MHz | 1.58054
297.38 K, 1176 kPa, Gas, Frequency=340 MHz | 1.01138
297.57 K, 7002 kPa, Liquid, Frequency=270 MHz | 1.45192
297.6 K, 5992 kPa, Gas, Frequency=340 MHz | 1.10291
297.61 K, 6991 kPa, Liquid, Frequency=270 MHz | 1.45145
297.64 K, 2005 kPa, Gas, Frequency=340 MHz | 1.02052
297.7 K, 3002 kPa, Gas, Frequency=340 MHz | 1.03319
297.73 K, 3998 kPa, Gas, Frequency=340 MHz | 1.0487
297.75 K, 4570 kPa, Gas, Frequency=340 MHz | 1.05962

F/C=C/C(F)(F)F [trans-1,3,3,3-tetrafluoropropene]
Details | relative permittivity
248.98 K, 2078 kPa, Liquid, Frequency=200 MHz | 3.44336
249 K, 4121 kPa, Liquid, Frequency=200 MHz | 3.45458
249.02 K, 6251 kPa, Liquid, Frequency=200 MHz | 3.46583
249.06 K, 8448 kPa, Liquid, Frequency=200 MHz | 3.47696
249.07 K, 10680 kPa, Liquid, Frequency=200 MHz | 3.48805
273.01 K, 7894 kPa, Liquid, Frequency=200 MHz | 3.19554
273.19 K, 10470 kPa, Liquid, Frequency=200 MHz | 3.21071
273.23 K, 4627 kPa, Liquid, Frequency=200 MHz | 3.17426
273.36 K, 1598 kPa, Liquid, Frequency=200 MHz | 3.15254
273.46 K, 486 kPa, Liquid, Frequency=200 MHz | 3.14403
273.66 K, 73.9 kPa, Gas, Frequency=340 MHz | 1.00498
274.29 K, 139 kPa, Gas, Frequency=340 MHz | 1.00927
297.59 K, 79.6 kPa, Gas, Frequency=340 MHz | 1.00458
297.59 K, 240.4 kPa, Gas, Frequency=340 MHz | 1.01364
297.6 K, 349.7 kPa, Gas, Frequency=340 MHz | 1.02033
297.63 K, 5735 kPa, Liquid, Frequency=200 MHz | 2.92689
297.63 K, 10470 kPa, Liquid, Frequency=200 MHz | 2.96416
297.64 K, 140.5 kPa, Gas, Frequency=340 MHz | 1.00794
297.65 K, 7982 kPa, Liquid, Frequency=200 MHz | 2.94513
297.67 K, 1491 kPa, Liquid, Frequency=200 MHz | 2.88752
297.67 K, 3490 kPa, Liquid, Frequency=200 MHz | 2.90668
321.55 K, 211.2 kPa, Gas, Frequency=340 MHz | 1.01063
321.63 K, 210.1 kPa, Gas, Frequency=340 MHz | 1.0105
321.76 K, 3999 kPa, Liquid, Frequency=200 MHz | 2.66845
321.78 K, 7249 kPa, Liquid, Frequency=200 MHz | 2.70714
321.79 K, 10980 kPa, Liquid, Frequency=200 MHz | 2.74469
345.96 K, 227.2 kPa, Gas, Frequency=340 MHz | 1.01022
345.97 K, 225.2 kPa, Gas, Frequency=340 MHz | 1.01005
346.5 K, 4377 kPa, Liquid, Frequency=200 MHz | 2.42553
346.53 K, 6645 kPa, Liquid, Frequency=200 MHz | 2.46858
346.59 K, 9481 kPa, Liquid, Frequency=200 MHz | 2.51185
365.54 K, 236.9 kPa, Gas, Frequency=340 MHz | 1.00981
365.79 K, 239.2 kPa, Gas, Frequency=340 MHz | 1.00997
365.83 K, 4248 kPa, Liquid, Frequency=200 MHz | 2.19675
365.87 K, 6046 kPa, Liquid, Frequency=200 MHz | 2.25994
365.93 K, 9015 kPa, Liquid, Frequency=200 MHz | 2.33081
